{"source": "patent US10138228B2", "about": "“Isoxazole derivatives as FXR agonists and methods of use therof” (Enanta Pharmaceuticals, Inc., priority 2016, dated 2018)", "biological_target": "human FXR (NR1H4) (Homo sapiens (Human), UniProt Q96RI1)", "sequence (Q96RI1 whole entry, the tested form may be a part)": "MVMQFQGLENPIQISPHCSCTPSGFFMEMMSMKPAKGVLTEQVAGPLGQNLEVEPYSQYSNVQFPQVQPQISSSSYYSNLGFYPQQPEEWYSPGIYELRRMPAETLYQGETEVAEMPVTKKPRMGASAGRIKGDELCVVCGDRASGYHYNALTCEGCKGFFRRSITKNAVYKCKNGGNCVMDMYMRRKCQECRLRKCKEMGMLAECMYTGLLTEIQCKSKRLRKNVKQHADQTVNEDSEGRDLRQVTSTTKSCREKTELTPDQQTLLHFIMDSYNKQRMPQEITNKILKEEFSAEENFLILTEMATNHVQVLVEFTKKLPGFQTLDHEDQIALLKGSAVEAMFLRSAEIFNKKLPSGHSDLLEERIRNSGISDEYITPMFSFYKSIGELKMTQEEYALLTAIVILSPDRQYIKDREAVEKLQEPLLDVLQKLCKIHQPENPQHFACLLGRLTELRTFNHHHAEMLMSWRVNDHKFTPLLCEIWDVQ", "test": "Human FXR (NR1H4) Assay (Gal4 promoter driven luciferase reporter, CHO cells)", "assay_type": "cell-based", "conditions": "CHO reporter cells expressing human NR1H4; for EC50: 22 hours incubation, potency ranges; for Efficacy (%): normalized to CDCA set as 100%", "source_text": "Human FXR (NR1H4) Assay Determination of a ligand mediated Gal4 promoter driven transactivation to quantify ligand binding mediated activation of FXR. FXR Reporter Assay kit purchased from Indigo Bioscience (Catalogue number: IB00601) to determine the potency and efficacy of compound developed by Enanta that can induce FXR activation. The principle application of this reporter assay system is to quantify functional activity of human FXR. The assay utilizes non-human mammalian cells, CHO (Chinese hamster ovary) cells engineered to express human NR1H4 protein (referred to as FXR). Reporter cells also incorporate the cDNA encoding beetle luciferase which catalyzes the substrates and yields photon emission. Luminescence intensity of the reaction is quantified using a plate-reading luminometer, Envision. Reporter Cells include the luciferase reporter gene functionally linked to an FXR responsive promoter. Thus, quantifying changes in luciferase expression in the treated reporter cells provides a sensitive surrogate measure of the changes in FXR activity. […] The assay is according to the manufacturer's instructions. In brief, the assay was performed in white, 96 well plates using final volume of 100 μl containing cells with different doses of compounds. Retrieve Reporter Cells from −80° C. storage. Perform a rapid thaw of the frozen cells by transferring a 10 ml volume of 37° C. cell recovery medium into the tube of frozen cells. Recap the tube of Reporter Cells and immediately place it in a 37° C. water bath for 5-10 minutes. Retrieve the tube of Reporter Cell Suspension from the water bath. Sanitize the outside surface of the tube with a 70% alcohol swab, and then transfer it into the cell culture hood. Dispense 90 μl of cell suspension into each well of the 96-well Assay Plate. Transfer the plate into 37° C. incubator, allowing the cells adherent to the bottom of the well. Dilute compounds in Dilution Plate (DP), and administrate to cells at Assay Plate (AP). DMSO content of the samples was kept at 0.2%. Cells were incubated for additional 22 hours before luciferase activities were measured. Thirty minutes before intending to quantify FXR activity, remove Detection Substrate and Detection Buffer from the refrigerator and place them in a low-light area so that they may equilibrate to room temperature. Remove the plate's lid and discard all media contents by ejecting it into an appropriate waste container. Gently tap the inverted plate onto a clean absorbent paper towel to remove residual droplets. Cells will remain tightly adhered to well bottoms. Add 100 μl of luciferase detection reagent to each well of the assay plate. Allow the assay plate to rest at room temperature for at least 5 minutes following the addition of LDR. Set the instrument (Envision) to perform a single 5 second “plate shake” prior to reading the first assay well. Read time may be 0.5 second (500 mSec) per well.", "data": [{"molecule": "CN(Cc1ccc(C(=O)NS(=O)(=O)C2CC2)cc1)c1ccc(OCc2c(-c3c(Cl)cccc3Cl)noc2C2CC2)nc1C(F)(F)F", "note": "[Example 1]", "values": [{"measurement": "EC50", "value": "100 to 1000", "unit": "nM"}, {"measurement": "Efficacy (%)", "value": 145, "unit": "%"}]}, {"molecule": "CN(Cc1ccc(C(=O)NS(=O)(=O)c2ccc(C(C)(C)C)cc2)cc1)c1ccc(OCc2c(-c3c(Cl)cccc3Cl)noc2C2CC2)nc1C(F)(F)F", "note": "[Example 2]", "values": [{"measurement": "EC50", "value": "1000 to 10000", "unit": "nM"}, {"measurement": "Efficacy (%)", "value": 108, "unit": "%"}]}, {"molecule": "CN(Cc1ccc(C(=O)NS(=O)(=O)N(C)C)cc1)c1ccc(OCc2c(-c3c(Cl)cccc3Cl)noc2C2CC2)nc1C(F)(F)F", "note": "[Example 3]", "values": [{"measurement": "Efficacy (%)", "value": 153, "unit": "%"}]}]}
